Data on 5 compounds can be found in EP0944596B1, “1-ACRYLOYLINDOLINE DERIVATIVES AND THEIR USE AS PRODRUGS OF ANTICANCER AGENTS” (Auckland Uniservices Limited, priority 1996, dated 1998).

Experiment [1] concerns UV4 cells. Put plainly: Activation by E. coli nitroreductase 2 (NR2): growth inhibition of UV4 cells with purified enzyme and NADH added. It is filed as cell-based. The conditions noted are these: for IC50: Cricetulus griseus, UV4 cells, purified E. coli nitroreductase enzyme (1 µg/mL) and NADH (1 mM) during the entire incubation, read-out: IC50 (nM) drug + NADH + NR2; for Ratio*: IC50 drug alone/IC50 drug + NADH + NR2, intra-experiment ratios, 1080 min. Here is the method:
(§1) To evaluate the activity of a compound UV4 cells were maintained in exponential phase growth (doubling times 14 and 15 h respectively) using Alpha MEM containing fetal calf serum (10% v/v) without antibiotics, and were subcultured twice weekly by trypsinization. Bulk cultures were prepared for experiments by seeding cells in spinner flasks at 10^4 cells/mL in the above medium with addition of penicillin (100 IU/mL) and streptomycin (100 µg/mL). Cultures were initiated in 96-well microtiter trays to give 200 (AA8) or 300 (UV4) cells in 0.05 mL per well. After growth in a CO2 incubator for 24 h, drugs were added in culture medium, using serial two-fold dilutions to provide duplicate cultures at five different concentrations for each of eight drugs (plus eight controls) per tray. After 18 h drugs were removed by washing cultures three times with fresh medium, and the trays were incubated for a further 78 h. Cell density was then determined by staining with metbylene blue as described [Finlay, G.J.; Baguley, B.C.; Wilson, W.R. Anal. Biochem., 1984, 139: 272-277]. The IC50 was calculated as the drug concentration providing 50% inhibition of growth relative to the controls.
(§2) To evaluate the activation of the compound by E. coli nitroreductase 2 (NR2) the experiment was repeated but in addition purified E. coli nitroreductase enzyme (1 µg/mL) and NADH (1 mM, as cofactor) was added during the entire time of the incubation. As a comparison the experiment was also repeated but with the addition only of NADH and not NR2.
(§3) Where multiple determinations were carried out the IC50 is given as an average ± SEM. Where one determination only was carried out a single IC50 value is given.

Experiment [2] has as its system UV4 cells. Put plainly: Growth inhibition (cytotoxicity) of UV4 cells, 18 h drug exposure, methylene blue staining. Type of experiment: cell-based. The following applies: Cricetulus griseus. As for the experimental part:
as §1, §2, §3

For experiment [3] the following is noted: background statement, literature; cited from earlier work.
Setting [4] is: 18 h exposure, then 78 h further incubation, average ± SEM where multiple determinations, read-out: IC50 (nM) drug alone.
[5] abbreviates: NADH (1 mM) added, no NR2, 18 h exposure, read-out: IC50 (nM) drug + NADH.

Consider `CC(=O)Nc1cccc(/C=C/C(=O)N2CC(CCl)c3ccc([N+](=O)[O-])cc32)c1` (stereo not drawn) [Compound 13, 1-[(E)-3-(acetylamino)cinnamoyl]-3-chloromethyl-6-nitroindoline], for which the values for the 50% inhibitory concentration (IC50) in experiment [1], in experiment [2] (setting [4]) and in experiment [2] (setting [5]) were 74 ± 23 nM, 335 nM and 339 nM, respectively. Also, in experiment [1], the “Ratio*” value is given as 3.5.
`Cn1cccc1C(=O)Nc1cccc(/C=C/C(=O)N2CC(CCl)c3ccc([N+](=O)[O-])cc32)c1` (stereo not drawn) [Compound 12, 1-[(E)-3-(1-methylpyrrole-2-carboxamido)cinnamoyl]-3-chloromethyl-6-nitroindoline]: the “Ratio*” value in experiment [1] is “ca. 30”. Moreover, in experiment [2] (setting [4]), the IC50 is around 5000 nM.
With `COc1c(O)c2c(c3cc(C(=O)N4CCc5c4c(O)c(OC)c4[nH]c(C(=O)N6CC7CC78C6=CC(=O)c6[nH]cc(C)c68)cc54)[nH]c13)CCN2C(N)=O` (stereo not drawn) [CC-1065], the 50% inhibitory concentration (IC50) entry in experiment [3] was “low pM range”.
In the case of `CCCC(=O)Nc1cc(/C=C/C(=O)N2CC(CCl)c3ccc(N)cc32)n(C)c1` (stereo not drawn) [Compound 8, 6-amino-1-[(E)-3-(4-butyramido-1-methyl-2-pyrrole)acryloyl]-3-(chloromethyl)indoline], the half-maximal inhibitory concentration (IC50) in experiment [1] was 35 nM; in experiment [2] (setting [4]), 38 nM; in experiment [2] (setting [5]), 24 nM. For the same compound, the “Ratio*” value in experiment [1] came out at 1.1.
On to `CCCC(=O)Nc1cc(/C=C/C(=O)N2CC(CCl)c3ccc([N+](=O)[O-])cc32)n(C)c1` (stereo not drawn) [Compound 7, 1-[(E)-3-(4-butyramido-1-methyl-2-pyrrole)acryloyl]-3-(chloromethyl)-6-nitroindoline], for which the half-maximal inhibitory concentration (IC50) in experiment [1] amounted to 43 ± 4 nM; in experiment [2] (setting [4]), 2940 ± 320 nM; in experiment [2] (setting [5]) it was 1080 ± 340 nM. Further, the “Ratio*” value in experiment [1] is on record as 70±13.
